Assay results: ChEMBL document CHEMBL4402607, “Molecular Basis for Omapatrilat and Sampatrilat Binding to Neprilysin-Implications for Dual Inhibitor Design with Angiotensin-Converting Enzyme” (J Med Chem, 2020)

Columns and labels:
[1] = target: Angiotensin-converting enzyme (Homo sapiens) (UniProt P12821); assay: Selectivity index, ratio of Ki for human wild type ACE N-domain to Ki for human testis ACE C-domain (unknown origin) using Abz-FRK(Dnp)P-OH as substrate by fluorescence based analysis
[2] = target: Angiotensin-converting enzyme (Homo sapiens) (UniProt P12821); assay: Selectivity index, ratio of Ki for human ACE N-domain soluble form (1 to 629 residues) expressed in CHO cells to Ki for human testis ACE C-domain lacking unique O-glycosylated region, transmembrane anchor and cytoplasmic tail expressed in CHO cells; format: cell-based
[3] = target: Angiotensin-converting enzyme (Homo sapiens) (UniProt P12821); assay: Selectivity index, ratio of Ki for human somatic ACE N-terminal domain to human somatic ACE C-terminal domain using MCA-RPPGFSAFK-Dnp-OH as substrate by fluorescence based analysis

Angiotensin-converting enzyme (Homo sapiens), sequence (P12821 whole entry, the tested form may be a part): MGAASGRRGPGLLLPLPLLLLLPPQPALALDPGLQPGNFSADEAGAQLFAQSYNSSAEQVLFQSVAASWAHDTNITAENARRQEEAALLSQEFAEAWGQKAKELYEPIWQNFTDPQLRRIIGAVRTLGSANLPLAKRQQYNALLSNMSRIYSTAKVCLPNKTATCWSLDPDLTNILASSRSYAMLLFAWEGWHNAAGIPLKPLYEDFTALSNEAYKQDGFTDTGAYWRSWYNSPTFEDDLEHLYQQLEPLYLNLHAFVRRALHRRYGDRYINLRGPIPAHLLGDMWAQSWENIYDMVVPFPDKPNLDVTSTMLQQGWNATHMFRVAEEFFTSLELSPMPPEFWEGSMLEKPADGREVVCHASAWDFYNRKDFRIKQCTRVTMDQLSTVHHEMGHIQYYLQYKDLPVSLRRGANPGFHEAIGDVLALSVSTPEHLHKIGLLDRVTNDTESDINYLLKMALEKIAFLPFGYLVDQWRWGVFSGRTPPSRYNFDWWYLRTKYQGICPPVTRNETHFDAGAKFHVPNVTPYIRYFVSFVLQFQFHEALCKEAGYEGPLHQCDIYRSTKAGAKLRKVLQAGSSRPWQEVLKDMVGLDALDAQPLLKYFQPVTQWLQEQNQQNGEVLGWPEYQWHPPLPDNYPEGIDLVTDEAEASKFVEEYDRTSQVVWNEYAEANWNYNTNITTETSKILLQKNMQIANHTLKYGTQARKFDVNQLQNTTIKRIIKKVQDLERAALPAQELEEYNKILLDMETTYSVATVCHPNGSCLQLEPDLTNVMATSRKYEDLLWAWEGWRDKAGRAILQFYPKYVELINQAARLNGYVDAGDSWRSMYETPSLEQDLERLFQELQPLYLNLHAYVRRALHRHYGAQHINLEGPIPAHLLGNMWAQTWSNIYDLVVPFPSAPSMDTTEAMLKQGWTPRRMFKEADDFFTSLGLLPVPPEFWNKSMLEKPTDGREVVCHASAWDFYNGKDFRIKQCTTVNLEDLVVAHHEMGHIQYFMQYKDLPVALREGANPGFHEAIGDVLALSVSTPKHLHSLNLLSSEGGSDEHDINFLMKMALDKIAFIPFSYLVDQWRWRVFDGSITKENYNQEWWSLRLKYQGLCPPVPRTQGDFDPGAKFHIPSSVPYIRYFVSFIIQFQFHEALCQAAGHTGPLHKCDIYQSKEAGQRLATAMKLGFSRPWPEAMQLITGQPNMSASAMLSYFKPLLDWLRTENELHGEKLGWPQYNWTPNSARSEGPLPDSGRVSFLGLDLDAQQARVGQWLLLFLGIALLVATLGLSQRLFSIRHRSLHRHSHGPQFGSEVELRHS

| Structure (SMILES) | Ratio Ki [1] | other results |
| --- | --- | --- |
| NCCCC[C@H](N[C@@H](CCc1ccccc1)C(=O)O)C(=O)N1CCC[C@H]1C(=O)O | 4 | – |
| NCCCC[C@H](N[C@@H](CCc1ccccc1)C(=O)O)C(=O)N[C@H](Cc1c[nH]c2ccccc12)C(=O)O | 243 | – |
| CS(=O)(=O)N[C@@H](CCCCN)C(=O)NC[C@H](CC1(C(=O)N[C@@H](Cc2ccc(O)cc2)C(=O)O)CCCC1)C(=O)O | – | Ratio Ki [2]: 12.5 |
| O=C(N[C@@H](Cc1ccccc1)P(=O)(O)[C@@H]1CCC[C@H]1C(=O)N[C@@H](Cc1c[nH]c2ccccc12)C(=O)O)OCc1ccccc1 | – | Ratio Ki [3]: 3000 |
